Entries after “also recorded” stand apart in the source; their conditions may differ. Like-named read-outs stand apart in the source and are kept apart here.
Tests used:
[1] = Dose-adjusted serum antidepressant concentrations across pregnancy compared to the women's own baseline (routine TDM, LC-MS, linear mixed model); assay type: in vivo, human; settings: for Change of serum concentration in pregnancy compared to baseline (in words): fluoxetine and venlafaxine = active moiety; for Serum concentration in third trimester lower than baseline (reduction): mid third trimester (gestational week 34) vs baseline, value given as size of the reduction; for Serum concentration in pregnancy as share of pre-pregnancy levels: drop to about this share of pre-pregnancy levels
Excerpt: After obtaining approval from the Regional Committee for Medical and Health Research Ethics in Mid Norway, the Norwegian Centre for Research Data (Data Protection Official), the Norwegian Directorate of Health and the Medical Birth Registry of Norway (MBRN) publication council, serum concentration data for antidepressants were collected from the two largest TDM services for psychotropic drugs in Norway (i.e. Department of Clinical Pharmacology at St. Olav University Hospital in Trondheim, and Center for Psychopharmacology at Diakonhjemmet Hospital in Oslo). […] The antidepressant TDM data contain serum concentration measurements taken in a naturalistic setting from psychiatry inpatients and outpatients. In addition to measured serum concentrations, the databases contain information obtained from the requisition forms, such as the prescribed antidepressant dose, time of last drug intake, time of blood sampling, and types and doses of concomitant drugs.
First, a combined laboratory TDM file was created, containing all serum concentration measurements (for any drug) in the period October 1999 –December 2011 for all women of reproductive age (i.e. born 1950–2000). […] Using the unique 11-digit identification number assigned to all individuals living in Norway, the MBRN could identify all pregnant women in the TDM data set. […] For the current study we retrieved the following information: the personal identification number, the drug analysed, the measured drug serum concentration, time of last dose, time of sampling, drug dose, concomitant drug use, other clinical information, name of the responsible physician, gestational week at the time of sampling (calculated from the sampling date and the pregnancy onset date as determined by obstetric ultrasound if available, or by last menstruation), and date of delivery.
If the requisition form lacked information on drug dose the authors contacted the responsible physician, who attempted to obtain this information from the medical record. If we were unable to retrieve this information, the analysis was excluded.
Having identified the pregnant women and their individual pregnancy periods in the extracted data file, we used the original TDM databases to retrieve serum concentration measurements before and after pregnancy from the same women, to serve as baseline observations for each of the included subjects. […] These analyses were not used in the statistical model, only for visual comparison. The remaining 420 analyses were used for the statistical comparisons.
Since multiple measurements were available from the same patient a linear mixed model was used. […] Baseline measurements were set to gestational week 0 in the model. Then, the effect of gestational week on concentration compared to baseline could be estimated for each drug.
Data are presented as means with 95% confidence intervals.

[2] = cited from earlier work
[3] = Serum metabolite concentrations and parent compound/metabolite ratios at baseline and in the third trimester (TDM, linear mixed model); settings: for Change of parent compound or metabolite serum concentration in pregnancy (in words): analyses with metabolite data (Table 3); for Change from baseline conc., Estimate (parent compound or metabolite) / Parent compound / metabolite ratio (PMR), change from baseline, estimate: baseline to third trimester (gestational week 34); for Baseline conc., Estimate (parent compound or metabolite) / Parent compound / metabolite ratio (PMR), baseline estimate: day 0 (non-pregnant); for Baseline conc., Estimate (parent compound or metabolite) / Loge serum concentration, Intercept estimate (parent compound or metabolite): only analyses with metabolite data; for Baseline conc., Estimate (parent compound or metabolite): dose-adjusted to DDD; for Parent compound / metabolite ratio (PMR), third trimester estimate: gestational week 34; for Loge PMR, Intercept estimate / Loge PMR, Change per gestational week estimate: loge-transformed parent compound/metabolite ratio; for Loge PMR, Intercept estimate: baseline; for Loge PMR, Change per gestational week estimate / Loge serum concentration, Change per gestational week estimate (parent compound or metabolite): per week of pregnancy; for Loge serum concentration, Intercept estimate (parent compound or metabolite) / Loge serum concentration, Change per gestational week estimate (parent compound or metabolite): loge-transformed; for Loge serum concentration, Intercept estimate (parent compound or metabolite): baseline (day 0 of pregnancy); for Parent compound / metabolite ratio in mid third trimester lower than baseline: value printed as size of the decline
Description: (§1) Quantification of the drug concentrations was performed with liquid chromatography-mass spectrometry/tandem mass spectrometry (LC-MS/LC-MS/MS). […] In brief, the drugs were extracted from serum by liquid-liquid extraction, using a mixture of hexane, acetonitrile and/or butanol, or dichloromethane and isopropanol. Thereafter, the analytes were separated on C18 columns using methanol, acetonitrile, formic acid or ammonium acetate as mobile phases, and quantified on LC-MS or LC-MS-MS systems. Calibration curves were constructed for each assay with drug-free human serum by the addition of varying concentrations of the antidepressants and their respective metabolites.
(§2) Serum concentrations in ng/mL were divided by the daily dose used by the person at the time of sampling, providing a serum concentration/dose ratio, and then multiplied by the defined daily dose (DDD), which is the assumed average maintenance dose per day for that drug used for its main indication in adults [28]. […] All concentrations presented and discussed in this article, including tables and figures, are dose-adjusted to the DDD of the drug.
(§3) For drugs where both the parent drug and the metabolite were measured, parent drug/metabolite concentration ratios during pregnancy were compared to baseline values as described above; ratios were loge-transformed and fitted into a linear mixed model, estimating the baseline ratios and the effect of each gestational week.
(§4) All model parameters, including variance components, were estimated by the method of maximum likelihood using STATA 13 command “mixed”. […] P values less than 0.05 were considered statistically significant.

[4] = in vivo
Description: as §1, §2, §3, §4

[5] = Previous studies of antidepressant plasma/serum concentrations in pregnancy (literature quoted in the Discussion); assay type: in vivo, human; settings: 0.3 ng/mL per gestational week applied to this study's data

Row | Structure (SMILES) | Change of serum concentration in pregnancy compared to baseline (in words) ([1]; dose-adjusted) | Change of parent compound or metabolite serum concentration in pregnancy (in words) [3] | Change from baseline conc., Estimate (parent compound or metabolite) [3] | Parent compound / metabolite ratio (PMR), change from baseline, estimate [3] | Baseline conc., Estimate (parent compound or metabolite) [3] | Parent compound / metabolite ratio (PMR), baseline estimate [3] | Parent compound / metabolite ratio (PMR), third trimester estimate [3] | Loge PMR, Intercept estimate [3] | Loge PMR, Change per gestational week estimate [3] | Loge serum concentration, Intercept estimate (parent compound or metabolite) [3] | Loge serum concentration, Change per gestational week estimate (parent compound or metabolite) [3] | other results
1 | CN[C@H]1CC[C@@H](c2ccc(Cl)c(Cl)c2)c2ccccc21 [Sertraline] | statistically significant increase | increasing levels | +83% | -20% | 8.6 ng/mL | 0.5 | 0.4 | -0.764 | -0.006 | 2.147 | 0.018 | Change of concentrations in pregnancy in previous studies (in words) ([2]; eight and six pregnancies): variable/non-significant observations; Parent compound / metabolite ratio in mid third trimester lower than baseline [3]: 20%
2 | CN(C)CCC[C@@]1(c2ccc(F)cc2)OCc2cc(C#N)ccc21 [Escitalopram] | did not change significantly; also recorded: not statistically significant; also recorded: remain largely unchanged; also recorded: close to zero | – | +24% | +40% | 8.4 ng/mL | 1.8 | 2.5 | 0.581 | 0.010 | 2.129 | 0.006 | concentration at 4 gestational week ([1]; female, human, serum, 10 mg/day, one analysis in week 4, dose-adjusted, read-out: Observed serum concentration, outlier not shown in Fig 2): 36 ng/mL; concentration at 5 gestational week ([1]; female, human, serum, 10 mg/day, one analysis in week 5, dose-adjusted, read-out: Observed serum concentration, outlier not shown in Fig 2): 40 ng/mL; Observed serum concentration, outlier not shown in Fig 2 ([1]; one analysis in week 0 (baseline), dose-adjusted): 36 ng/mL; Change of concentrations throughout pregnancy (in words) ([2]; five pregnancies, ref Sit et al. [19]): only minor declines or no change; Parent compound / metabolite ratio (PMR), change from baseline, estimate ([3]; listed as escitalopram): 40%
3 | CNCCC(Oc1ccc(C(F)(F)F)cc1)c1ccccc1 (stereo not drawn) [Fluoxetine] | did not change significantly; also recorded: not statistically significant; also recorded: remain largely unchanged; also recorded: no major decline | decline | -31% | -36% | 77.7 ng/mL | 1.0 | 0.6 | -0.045 | -0.013 | 4.353 | -0.011 | Third trimester concentrations of the active moiety lower than baseline ([2]; fluoxetine plus norfluoxetine, 11 pregnancies, ref Heikkinen et al.): 32%; Parent compound / metabolite ratio in mid third trimester lower than baseline [3]: 36%
4 | CN(C)CCCC1(c2ccc(F)cc2)OCc2cc(C#N)ccc21 (stereo not drawn) [Citalopram] | remain largely unchanged | – | -39% | -13% | 32.3 ng/mL | 2.6 | 2.3 | 0.973 | -0.004 | 3.475 | -0.015 | Serum concentration in third trimester lower than baseline (reduction) [1]: 24%; Third trimester concentrations lower than baseline values ([2]; 11 pregnancies, ref Heikkinen et al. [13]): 42%; Third trimester concentrations lower than baseline ([2]; two pregnancies, ref Sit et al. [19]): 26%; Change of parent compound / metabolite ratio in pregnancy (in words) ([3]; third trimester vs baseline): did not reach statistical significance
5 | NCCC(Oc1ccc(C(F)(F)F)cc1)c1ccccc1 (stereo not drawn) [Norfluoxetine] | – | remain largely unchanged | 0% | – | 83.7 ng/mL | – | – | – | – | 4.427 | 0.000 | –
6 | COc1ccc(C(CN(C)C)C2(O)CCCCC2)cc1 (stereo not drawn) [Venlafaxine] | remain largely unchanged | trend towards a statistically significant decline | -40% | – | 35.8 ng/mL | – | – | -0.927 | -0.011 | 3.577 | -0.015 | Change of serum concentration in pregnancy compared to baseline (in words) ([1]; dose-adjusted, listed as venlafaxine): did not change significantly; also recorded: not statistically significant; Reduction in plasma levels in pregnancy compared to baseline ([2]; case report, ref Klier et al. [16]): more than 50%; Reduction in levels in pregnancy ([2]; prospective study of seven pregnancies, ref ter Horst et al. [24]): 13%
7 | N[C@H]1CC[C@@H](c2ccc(Cl)c(Cl)c2)c2ccccc21 [Desmethylsertraline] | – | increasing levels | +120% | – | 18.4 ng/mL | – | – | – | – | 2.914 | 0.023 | –
8 | CNCCCC1(c2ccc(F)cc2)OCc2cc(C#N)ccc21 (stereo not drawn) [Desmethylcitalopram] | – | – | -33% | – | 12.6 ng/mL | – | – | – | – | 2.534 | -0.012 | –
9 | CNCCCC1(c2ccc(F)cc2)OCc2cc(C#N)ccc21 (stereo not drawn) [Desmethylescitalopram] | – | – | – | – | – | – | – | – | – | – | – | Loge serum concentration, Change per gestational week estimate (parent compound or metabolite) [4]: -0.004
10 | CNCC[C@H](Oc1ccc(C(F)(F)F)cc1)c1ccccc1 [S-fluoxetine] | – | – | – | – | – | – | – | – | – | – | – | Enantiomer concentration change in pregnancy, chiral analysis (in words) ([2]; in vivo): declined more than R-fluoxetine
11 | Fc1ccc([C@@H]2CCNC[C@H]2COc2ccc3c(c2)OCO3)cc1 [Paroxetine] | – | – | – | – | – | – | – | – | – | – | – | Serum concentration in pregnancy as share of pre-pregnancy levels [1]: about 50%; Serum concentration in third trimester lower than baseline (reduction) [1]: 51%; Reduction in week 34 to which the cited decline per week translates for the present data [5]: 30%; Concentrations in third trimester compared to postpartum (in words) ([2]; 12 pregnancies, no numbers provided, ref Brogtrop et al. [17]): lower concentrations in the third trimester compared to postpartum; Increase of maternal plasma concentration per gestational week ([2]; intermediate and poor CYP2D6 metabolizers): 0.6 ng/mL per gestational week; Decline of maternal plasma concentration per gestational week ([2]; ultrarapid or extensive CYP2D6 metabolizers, 74 pregnancies, ref Ververs et al. [20]): 0.3 ng/mL per gestational week
12 | CN(C)CC(c1ccc(O)cc1)C1(O)CCCCC1 (stereo not drawn) [O-desmethylvenlafaxine] | – | did not change | -13% | – | 91.5 ng/mL | – | – | – | – | 4.516 | -0.004 | Change of metabolite levels in pregnancy (in words) ([2]; prospective study of seven pregnancies): no change
13 | COCCCC/C(=N\OCCN)c1ccc(C(F)(F)F)cc1 [Fluvoxamine] | – | – | – | – | – | – | – | – | – | – | – | Serum concentration in pregnancy as share of pre-pregnancy levels [1]: about 50%; Serum concentration in third trimester lower than baseline (reduction) [1]: 56%
